Test results reported in PubChem BioAssay (NCI).
Values joined by “and” are separate entries in the source; they are usually repeats but may differ in a detail not shown here. Identical values can stand only once.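 Five compound concentrations were applied to cells in 96-well plates for 48 hours; endpoints were derived by simple linear interpolation of the resulting dose-response curve. GI50: concentration for 50% inhibition of growth. TGI: total growth inhibition.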

Assays:
Test in all cases: inhibition of tumour cell growth, NCI panel, 48 h
[1] = system: A498 renal
[2] = system: CAKI-1 renal
[3] = system: CCRF-CEM leukemia
[4] = system: HCT-116 colon
[5] = system: NCI-H23 lung
[6] = system: OVCAR-8 ovarian
[7] = system: SF-295 CNS
[8] = system: SK-MEL-2 melanoma
[9] = system: SNB-19 CNS
[10] = system: SW-620 colon

Molecule `O=C(/C=C/c1ccc([N+](=O)[O-])o1)NNC(=O)c1cc2ccccc2cc1O` has a GI50 [1] of 2.11 µM, a TGI [1] of 6.17 µM and a GI50 [2] of 1.04 µM. The GI50 [3] was 0.441 µM, the TGI [3] was over 100 µM and the GI50 [4] was 0.557 µM. It also gave a TGI [4] of 1.72 µM, a GI50 [5] of 1.05 µM and a TGI [5] of 5.03 µM. For the same molecule, the GI50 [6] was 1.11 µM, the TGI [6] was 20.1 µM and the GI50 [7] was 7.62 µM. For the same molecule, the TGI [7] was over 100 µM, the GI50 [8] was 1.44 µM and the TGI [8] was 3.97 µM. The GI50 [9] was 4.6 µM, the TGI [9] was over 100 µM and the GI50 [10] was 2.03 µM. For the same molecule, the TGI [10] was over 89 µM.
With `CCCCS(=N)(=O)CC[C@H](N)C(=O)O` (some centres not stated) the GI50 [1] was over 10000 µM, the TGI [1] was 5000 µM and > 10000 µM and the GI50 [2] was over 1080 µM. For the same molecule, the TGI [2] was 5000 µM and > 1330 µM, the GI50 [3] was 302 µM and the TGI [3] was 2790 µM and 2140 µM. The GI50 [4] was over 9060 µM, the TGI [4] was over 10000 µM and the GI50 [5] was over 10000 µM. For the same molecule, the TGI [5] was 5000 µM and > 10000 µM, the TGI [6] was 2920 µM and > 2770 µM and the TGI [7] was over 10000 µM. For the same molecule, the GI50 [8] was over 7640 µM, the TGI [8] was over 10000 µM and the GI50 [9] was over 10000 µM. The TGI [9] was over 10000 µM, the GI50 [10] was 3710 µM and the TGI [10] was over 10000 µM.
`Cc1c(C(=O)CC(=O)C(=O)NC2C3CC4CC(C3)CC2C4)[n+](=O)c2ccccc2n1[O-]` (configuration not stated) showed a TGI [1] of over 100 µM, a TGI [2] of over 100 µM and a TGI [3] of over 100 µM. The TGI [4] was over 100 µM, the TGI [5] was over 100 µM and the TGI [6] was over 100 µM. The TGI [7] was over 100 µM, the TGI [8] was over 100 µM and the TGI [9] was over 100 µM. It also gave a TGI [10] of over 100 µM.
For `Cc1ccc2c(c1)sc(-c1ccc(N(C)C)cc1)[n+]2C`, the GI50 [1] was 0.785 µM, the TGI [1] was 8.16 µM and the GI50 [2] was 8.84 µM. For the same molecule, the TGI [2] was over 56.2 µM, the GI50 [3] was 1.98 µM and the TGI [3] was over 62.5 µM. It also gave a GI50 [4] of 0.502 µM, a TGI [4] of over 34.6 µM and a GI50 [5] of 0.987 µM. For the same molecule, the TGI [5] was over 48.8 µM, the GI50 [6] was 1.41 µM and the TGI [6] was 34.8 µM. It also gave a GI50 [7] of 0.72 µM, a TGI [7] of over 22.8 µM and a GI50 [8] of 4.25 µM. For the same molecule, the TGI [8] was over 38 µM, the GI50 [9] was 1.95 µM and the TGI [9] was 21 µM. For the same molecule, the GI50 [10] was 2.28 µM and the TGI [10] was over 66 µM.
Work on `OCCCNCc1ccccn1` yielded a TGI [1] of over 100 µM, a TGI [2] of over 100 µM and a TGI [3] of over 100 µM. It also gave a TGI [4] of over 100 µM, a TGI [5] of over 100 µM and a TGI [6] of over 100 µM. It also gave a TGI [7] of over 100 µM, a TGI [8] of over 100 µM and a TGI [9] of over 100 µM. For the same molecule, the TGI [10] was over 100 µM.
With `c1c[nH]c(Cc2ncc(Cc3cnc[nH]3)[nH]2)n1` the TGI [1] was 86 µM, the TGI [2] was over 100 µM and the TGI [3] was 58.7 µM. For the same molecule, the TGI [4] was over 100 µM, the TGI [5] was over 100 µM and the TGI [6] was over 100 µM. For the same molecule, the TGI [7] was over 100 µM, the TGI [8] was over 100 µM and the TGI [9] was 84.4 µM. It also gave a TGI [10] of over 100 µM.
`CN(C)CCNC(=O)c1cccc(CO)c1[N+](=O)[O-]` showed a TGI [1] of over 100 µM, a TGI [2] of over 100 µM and a TGI [3] of over 100 µM. The TGI [4] was over 100 µM, the TGI [5] was over 100 µM and the TGI [6] was over 100 µM. The TGI [7] was over 100 µM, the TGI [8] was over 100 µM and the TGI [9] was over 100 µM. It also gave a TGI [10] of over 100 µM.
For `CCc1cccc(C)c1NC(=O)CC1Sc2ccccc2NC1=O` (configuration not stated), the TGI [1] was 72.8 µM, the TGI [2] was over 100 µM and the TGI [3] was over 100 µM. It also gave a TGI [4] of over 100 µM, a TGI [5] of over 100 µM and a TGI [6] of over 100 µM. For the same molecule, the TGI [7] was over 100 µM, the TGI [8] was over 100 µM and the TGI [9] was over 100 µM. For the same molecule, the TGI [10] was over 100 µM.
`CCN(CC)C(=S)SSC1CCCCC1` showed a GI50 [1] of 30.8 µM, a TGI [1] of over 100 µM and a GI50 [2] of 11.9 µM. The TGI [2] was 25.2 µM, the GI50 [3] was 5.72 µM and the TGI [3] was 58.6 µM. It also gave a GI50 [4] of 12.9 µM, a TGI [4] of 25.8 µM and a GI50 [5] of 20.8 µM. The TGI [5] was 48.7 µM, the GI50 [6] was 15.8 µM and the TGI [6] was 34.9 µM. The GI50 [7] was 17.6 µM, the TGI [7] was 44.6 µM and the GI50 [8] was 26.7 µM. For the same molecule, the TGI [8] was 61.2 µM, the GI50 [9] was 32.6 µM and the TGI [9] was over 100 µM. It also gave a GI50 [10] of 11.7 µM and a TGI [10] of 26.2 µM.
`O=C1C=C(c2cc(Br)c(O)c(Br)c2)/C(=C/c2cc(Br)c(O)c(Br)c2)O1` showed a GI50 [1] of 20.1 µM, a TGI [1] of 57.2 µM and a GI50 [2] of 34.3 µM. It also gave a TGI [2] of over 75 µM, a GI50 [3] of 7.38 µM and a TGI [3] of 73.8 µM. The GI50 [4] was 14.8 µM, the TGI [4] was 43.8 µM and the GI50 [5] was 35.2 µM. It also gave a TGI [5] of over 75 µM, a GI50 [6] of 29 µM and a TGI [6] of over 75 µM. For the same molecule, the GI50 [7] was 29.4 µM, the TGI [7] was over 75 µM and the GI50 [8] was 38.5 µM. For the same molecule, the TGI [8] was over 75 µM, the GI50 [9] was 14 µM and the TGI [9] was over 75 µM. The GI50 [10] was 29.7 µM and the TGI [10] was over 75 µM.
